In patent publication US20220073536A1 (Rigel Pharmaceuticals, Inc., priority 2003, published 2022):
Blank lines part the entries; values can stand above or below the compound they belong to.

Key:
[1] = tested on: cultured human mast cells (CHMC); assay: CHMC low cell density ionomycin activation: tryptase assay; format: cell-based; conditions: read-out: LD Tryptase, CHMC, Iono, 3 pt
[2] = tested on: cultured human mast cells (CHMC); assay: CHMC low cell density IgE activation: tryptase assay; format: cell-based; conditions: IgE activation
Procedure, shortened: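 Tryptase release, fluorogenic substrate, 30 min RT. Prior anti-IgE stimulation of CHMC, 30 min, 37 °C, after 1 hr preincubation at 1000–1500 cells/well in MT; unstimulated wells received MT.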

[3] = Homo sapiens, Mast cell, low cell density, 3 pt
[4] = Homo sapiens, Mast cell, low cell density, 3 pt, read-out: LD Tryptase, CHMC, IgE, 3 pt
[5] = Homo sapiens, Mast cell, low cell density CHMC, tryptase, 3 pt
[6] = Homo sapiens, Mast cell, low cell density CHMC, tryptase, 3 pt, read-out: LD Tryptase, CHMC, IgE, 3 pt
[7] = Homo sapiens, Mast cell, low cell density CHMC, tryptase, 8 pt, read-out: LD Tryptase, CHMC, IgE, 8 pt
[8] = low cell density CHMC, tryptase release, 3 pt
[9] = low cell density CHMC, tryptase release, 3 pt, read-out: LD Tryptase, CHMC, IgE, 3 pt
[10] = low cell density CHMC, tryptase release, 3 point
[11] = low cell density CHMC, tryptase release, 3 point, read-out: LD Tryptase, CHMC, IgE, 3 pt
[12] = low cell density CHMC, tryptase release, 8 point, read-out: LD Tryptase, CHMC, IgE, 8 pt
[13] = Homo sapiens, Mast cell, low cell density CHMC, tryptase release, 3 pt
[14] = Homo sapiens, Mast cell, low cell density CHMC, tryptase release, 3 pt, read-out: LD Tryptase, CHMC, IgE, 3 pt
[15] = Homo sapiens, Mast cell, low cell density CHMC, tryptase release, 8 pt, read-out: LD Tryptase, CHMC, IgE, 8 pt
[16] = Homo sapiens, Mast cell, low cell density, 8 pt, read-out: LD Tryptase, CHMC, IgE, 8 pt
[17] = low cell density CHMC, tryptase readout, 3 pt
[18] = low cell density CHMC, tryptase readout, 8 pt, read-out: LD Tryptase, CHMC, IgE, 8 pt

SMILES: CN(c1nc(Nc2ccc(N3CCOCC3)cc2)ncc1F)C1CCC1 [Compound 1139, N4-Cyclobutyl-5-fluoro-N4-methyl-N2-(4-morpholinophenyl)-2,4-pyrimidinediamine]
- IC50 [1, 5]: > 10 µM
- IC50 [2, 6]: < 10 µM

SMILES: COC(=O)c1cc2cc(Nc3ncc(F)c(N(C)c4ccc5c(c4)OCCO5)n3)ccc2o1 [Compound 395]
- IC50 [1, 5]: < 10 µM
- IC50 [2, 6]: < 10 µM
- IC50 [2, 7]: < 10 µM

SMILES: CC1(C)Oc2ccc(Nc3nc(Nc4ccc5cnn(CCCO)c5c4)ncc3F)cc2NC1=O [Compound 791, N4-(2,2-Dimethyl-3-oxo-4H-benz[1,4]oxazin-6-yl)-5-fluoro-N2-[1-(3-hydroxypropyl)indazol-6-yl]-2,4-pyrimidinediamine]
- IC50 [1, 13]: > 10 µM
- IC50 [2, 14]: < 10 µM
- IC50 [2, 15]: < 10 µM

SMILES: CNC(=O)c1ccc(Nc2ncc(F)c(Nc3ccc4c(c3)NC(=O)C(C)(C)O4)n2)cc1Cl [Compound 456, N2-[3-Chloro-4-(N-methylamino)carbonylphenyl]-N4-(2,2-dimethyl-3-oxo-4H-benz[1,4]oxazin-6-yl)-5-fluoro-2,4-pyrimidinediamine]
- IC50 [1, 3]: < 10 µM
- IC50 [2, 4]: < 10 µM
- IC50 [2, 16]: < 10 µM

SMILES: CNC(=O)c1ccc(Nc2ncc(F)c(N(C)c3ccc4c(c3)OCCO4)n2)cc1Cl [Compound 473, N2-[3-Chloro-4-(N-methylamino)carbonylphenyl]-N4-(3,4-ethylenedioxyphenyl)-5-fluoro-N4-methyl-2,4-pyrimidinediamine]
- IC50 [1, 3]: > 10 µM
- IC50 [2, 4]: < 10 µM

SMILES: CCn1ncc2cc(Nc3ncc(F)c(Nc4ccc(F)c(OC)c4)n3)ccc21 [Compound 697, N2-(1-Ethylindazol-5-yl)-5-fluoro-N4-(4-fluoro-3-methoxyphenyl)-2,4-pyrimidinediamine]
- IC50 [1, 5]: > 10 µM
- IC50 [2, 6]: < 10 µM
- IC50 [2, 7]: < 10 µM

SMILES: Fc1cnc(Nc2cccc(-c3ncco3)c2)nc1Nc1ccc2c(c1)NCCO2 [Compound 217, N4-(3,4-Dihydro-2H,4H-benz[1,4]oxazin-6-yl)-5-fluoro-N2-[3-(oxazol-2-yl)phenyl]-2,4-pyrimidinediamine]
- IC50 [1, 8]: > 10 µM
- IC50 [2, 9]: < 10 µM
- IC50 ([2]; low cell density CHMC, tryptase release, 8 pt, read-out: LD Tryptase, CHMC, IgE, 8 pt): < 10 µM

SMILES: CCOc1c(C)cc(Nc2ncc(F)c(Nc3ccc4c(c3)NC(=O)C(C)(C)O4)n2)cc1Cl [Compound 1008, N2-(3-Chloro-4-ethoxy-5-methylphenyl)-N4-(2,2-dimethyl-3-oxo-4H-benz[1,4]oxazin-6-yl)-5-fluoro-2,4-pyrimidinediamine]
- IC50 [1, 3]: < 10 µM
- IC50 [2, 4]: < 10 µM
- IC50 [2, 16]: < 10 µM

SMILES: Cc1cc(Nc2ncc(F)c(N(C)c3ccc4c(c3)N(C)C(=O)C(C)(C)O4)n2)cc(Cl)c1OC1CCCC1 [Compound 1032, N2-(3-Chloro-4-cyclopentyloxy-5-methylphenyl)-5-fluoro-N4-methyl-N4-(3-oxo-2,2,4-trimethyl-benz[1,4]oxazin-6-yl)-2,4-pyrimidinediamine]
- IC50 ([1]; Homo sapiens, Mast cell, low cell density CHMC, tryptase readout, 3 pt): > 10 µM
- IC50 ([2]; Homo sapiens, Mast cell, low cell density CHMC, tryptase readout, 3 pt, read-out: LD Tryptase, CHMC, IgE, 3 pt): > 10 µM

SMILES: CNC(=O)c1ccc(Nc2ncc(F)c(Nc3cccc(O)c3)n2)cc1Cl [Compound 468]
- IC50 [1, 3]: > 10 µM
- IC50 [2, 4]: < 10 µM
- IC50 [2, 16]: < 10 µM

SMILES: CN(c1ccc2c(c1)OCCO2)c1nc(Cl)ncc1F [Compound 390]
- IC50 [1, 5]: > 10 µM
- IC50 [2, 6]: > 10 µM

SMILES: C[C@H]1Oc2ccc(Nc3nc(Nc4cccc(-c5cocn5)c4)ncc3F)cc2NC1=O [Compound 250]
- IC50 [1, 13]: < 10 µM
- IC50 [2, 14]: < 10 µM
- IC50 [2, 15]: < 10 µM

More lines, now with the values ahead:

- IC50 [1, 3]: > 10 µM
- IC50 [2, 4]: < 10 µM
SMILES: COc1cc(OC)cc(N(C)c2nc(Cl)ncc2F)c1 [Compound 488]

- IC50 [1, 5]: > 10 µM
- IC50 [2, 6]: < 10 µM
SMILES: CCOC(=O)N1CCN(c2cccc(Nc3ncc(F)c(N[C@H]4CCN(Cc5ccccc5)C4)n3)c2)CC1 [Compound 1187, (S)-N4-(1-Benzylpyrrolidin-3-yl)-N2-[3-(4-ethoxycarbonylpiperazino)phenyl]-5-fluoro-2,4-pyrimidinediamine]

- IC50 [1, 5]: > 10 µM
- IC50 [2, 6]: < 10 µM
SMILES: COC(=O)CN(c1ccc2c(c1)OCCO2)c1nc(Nc2cccc(-c3cnco3)c2)ncc1F [Compound 443]

- IC50 [1, 5]: > 10 µM
- IC50 [2, 6]: < 10 µM
- IC50 [2, 7]: < 10 µM
SMILES: Fc1cnc(Nc2cccc(N3CCOCC3)c2)nc1Nc1cc(C2CC2)n[nH]1 [Compound 1114]

- IC50 [1, 5]: < 10 µM
- IC50 [2, 6]: < 10 µM
- IC50 [2, 7]: < 10 µM
SMILES: COc1cc(Nc2ncc(F)c(Nc3ccc4c(c3)N(C)C(=O)C(C)(C)O4)n2)cc(OC)c1 [Compound 397]

- IC50 [1, 5]: > 10 µM
- IC50 [2, 6]: < 10 µM
- IC50 [2, 7]: < 10 µM
SMILES: COc1ccc(Nc2nc(Nc3cccc(-c4cnco4)c3)ncc2F)cc1OC [Compound 419, N4-(3,4-Dimethoxyphenyl)-5-fluoro-N2-[3-(oxazol-5-yl)phenyl]-2,4-pyrimidinediamine]

- IC50 [1, 5]: > 10 µM
- IC50 [2, 6]: < 10 µM
SMILES: CC(=O)N1CCN(c2ccc(Nc3ncc(F)c(N[C@H]4CCN(Cc5ccccc5)C4)n3)cc2)CC1 [Compound 1181, (S)-N2-[4-(4-Acetylpiperazino)phenyl]-N4-(1-benzylpyrrolidin-3-yl)-5-fluoro-2,4-pyrimidinediamine]

- IC50 [1, 8]: > 10 µM
- IC50 [2, 9]: < 10 µM
SMILES: NC(=S)c1cccc(Nc2ncc(F)c(Nc3ccc4c(c3)NC(=O)C(CCO)O4)n2)c1 (stereo not shown) [Compound 262, N2-(3-Benzothioamide)-5-fluoro-N4-[2-(2-hydroxyethyl)-3-oxo-2H,4H-benz[1,4]oxazin-6-yl]-2,4-pyrimidinediamine]

- IC50 [1, 5]: > 10 µM
- IC50 [2, 6]: < 10 µM
SMILES: CC(=O)N1CCN(c2ccc(Nc3ncc(F)c(N(C)C4CCC4)n3)cc2)CC1 [Compound 1140, N2-[4-(4-Acetylpiperazino)phenyl]-N4-cyclobutyl-5-fluoro-N4-methyl-2,4-pyrimidinediamine]

- IC50 [1, 10]: > 10 µM
- IC50 [2, 11]: < 10 µM
- IC50 [2, 12]: < 10 µM
SMILES: CNC(=O)COc1ccc(Nc2nc(Nc3cc(OC)cc(OC)c3)ncc2F)cc1Cl [Compound 601, N4-[3-Chloro-4-(N-methylamino)carbonylmethyleneoxyphenyl]-N2-(3,5-dimethoxylphenyl)-5-fluoro-2,4-pyrimidinediamine]

- IC50 [1, 5]: > 10 µM
- IC50 [2, 6]: > 10 µM
SMILES: COc1cc(Nc2nc(Nc3ccc4oc(C(=O)O)cc4c3)ncc2F)cc(OC)c1 [Compound 382]

- IC50 [1, 17]: < 10 µM
- IC50 [2, 18]: > 10 µM
SMILES: Cc1cc(Nc2ncc(F)c(Nc3ccc4c(n3)NC(=O)C(C)(C)O4)n2)cc(Cl)c1OC(C)C [Compound 1040, N2-(3-Chloro-4-isopropoxy-5-methylphenyl)-N4-(2,2-dimethyl-3-oxo-4H-5-pyrid[1,4]oxazin-6-yl)-5-fluoro-2,4-pyrimidinediamine]

- IC50 [1, 17]: > 10 µM
- IC50 ([2]; low cell density CHMC, tryptase readout, 3 pt, read-out: LD Tryptase, CHMC, IgE, 3 pt): < 10 µM
- IC50 [2, 18]: < 10 µM
SMILES: CN1C(=O)C(C)(C)Oc2ccc(Nc3nc(Nc4cccc(-c5cnco5)c4)ncc3F)nc21 [Compound 1017, 5-Fluoro-N2-[3-(oxazol-5-yl)phenyl]-N4-[3-oxo-2,2,4-trimethyl-5-pyrid[1,4]oxazin-6-yl]-2,4-pyrimidinediamine]

- IC50 [1, 10]: > 10 µM
- IC50 [2, 11]: < 10 µM
SMILES: CNC(=O)COc1cccc(Nc2ncc(F)c(N(C)c3ccc(OC)c(Cl)c3)n2)c1 [Compound 580, N4-(3-Chloro-4-methoxyphenyl)-N2-[3-(N-methylamino)carbonylmethyleneoxyphenyl]-5-fluoro-N4-methyl-2,4-pyrimidinediamine]

- IC50 [1, 5]: < 10 µM
- IC50 [2, 6]: < 10 µM
- IC50 [2, 7]: < 10 µM
SMILES: Cc1cc(C)cc(Nc2ncc(F)c(Nc3ccc4c(c3)N(C)C(=O)C(C)(C)O4)n2)c1 [Compound 396]

- IC50 ([1]; low cell density CHMC, tryptase, 3 pt): > 10 µM
- IC50 ([2]; low cell density CHMC, tryptase, 3 pt, read-out: LD Tryptase, CHMC, IgE, 3 pt): < 10 µM
SMILES: COc1cc(Nc2nc(Nc3cccc4cc(C(=O)NC(C)(C)CO)[nH]c34)ncc2F)cc(OC)c1 [Compound 389, N4-(3,5-Dimethoxyphenyl)-N2-[2-(N-1,1-dimethyl-2-hydroxyethylamino)carbonylindol-7-yl]-5-fluoro-2,4-pyrimidinediamine]

- IC50 [1, 10]: < 10 µM
- IC50 [2, 11]: < 10 µM
- IC50 [2, 12]: < 10 µM
SMILES: CNC(=O)COc1c(C)cc(Nc2ncc(F)c(N(C)c3ccc4c(c3)OC(F)(F)C(F)(F)O4)n2)cc1C [Compound 636, N2-[3,5-Dimethyl-4-(N-methylamino)carbonylmethyleneoxyphenyl]-5-fluoro-N4-methyl-N4-[3,4-(tetrafluoroethylenedioxy)phenyl]-2,4-pyrimidinediamine]
